Measurements taken from the supplement of paper PMC10307832.

How the values were obtained:
Test in all cases: relative viability (nuclei count vs DMSO), 5 days (fraction); higher = more cells survive
COR-L 105 = tested on: COR-L 105
Procedure, shortened: (§1)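 Relative viability is defined as nuclei in treated wells over nuclei in vehicle wells. Duplicate plates were run and medians reported. Lung cancer cell lines in 1536-well plates were dosed by pin tool one day after seeding, with one drug or with a fixed anchor-drug dose plus five library-drug doses (not always all listed) in √10 steps, and nuclei were counted after 5 days.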

COR-L23 = tested on: COR-L23
Procedure, shortened: as §1

EKVX = tested on: EKVX
Procedure, shortened: as §1

HARA = tested on: HARA
Procedure, shortened: as §1

HCC-15 = tested on: HCC-15
Procedure, shortened: as §1

HOP-62 = tested on: HOP-62
Procedure, shortened: as §1

NCI-H1355 = tested on: NCI-H1355
Procedure, shortened: as §1

NCI-H1395 = tested on: NCI-H1395
Procedure, shortened: as §1

NCI-H1734 = tested on: NCI-H1734
Procedure, shortened: as §1

NCI-H1755 = tested on: NCI-H1755
Procedure, shortened: as §1

NCI-H1793 = tested on: NCI-H1793
Procedure, shortened: as §1

NCI-H1993 = tested on: NCI-H1993
Procedure, shortened: as §1

NCI-H2009 = tested on: NCI-H2009
Procedure, shortened: as §1

NCI-H2170 = tested on: NCI-H2170
Procedure, shortened: as §1

NCI-H2228 = tested on: NCI-H2228
Procedure, shortened: as §1

NCI-H2342 = tested on: NCI-H2342
Procedure, shortened: as §1

NCI-H2347 = tested on: NCI-H2347
Procedure, shortened: as §1

NCI-H358 = tested on: NCI-H358
Procedure, shortened: as §1

NCI-H647 = tested on: NCI-H647
Procedure, shortened: as §1

NCI-H838 = tested on: NCI-H838
Procedure, shortened: as §1

PC-14 = tested on: PC-14
Procedure, shortened: as §1

SK-MES-1 = tested on: SK-MES-1
Procedure, shortened: as §1

UMC-11 = tested on: UMC-11
Procedure, shortened: as §1

C=C1C(=O)O[C@@H](CCCCCCCC)[C@@H]1C(=O)O [C-75] + COc1cc2c(Oc3ccc(NC(=O)C4(C(=O)Nc5ccc(F)cc5)CC4)cc3F)ccnc2cc1OCCCN1CCOCC1 [Foretinib] (partner 0.25 µM)
relative viability (COR-L 105; first compound 0.08 µM): 0.934 | relative viability (COR-L 105; first compound 0.253 µM): 1.17 | relative viability (COR-L 105; first compound 0.8 µM): 1.12 | relative viability (COR-L 105; first compound 2.53 µM): 0.828 | relative viability (COR-L 105; first compound 8 µM): 1 | relative viability (COR-L23; first compound 0.08 µM): 0.903 | relative viability (COR-L23; first compound 0.253 µM): 1 | relative viability (COR-L23; first compound 0.8 µM): 0.856 | relative viability (COR-L23; first compound 2.53 µM): 0.9 | relative viability (COR-L23; first compound 8 µM): 0.965 | relative viability (EKVX; first compound 0.08 µM): 0.644 | relative viability (EKVX; first compound 0.253 µM): 0.925 | relative viability (EKVX; first compound 0.8 µM): 0.782 | relative viability (EKVX; first compound 8 µM): 1.06 | relative viability (HARA; first compound 0.08 µM): 0.822 | relative viability (HARA; first compound 0.253 µM): 0.93 | relative viability (HARA; first compound 0.8 µM): 0.819 | relative viability (HARA; first compound 2.53 µM): 0.769 | relative viability (HARA; first compound 8 µM): 0.979 | relative viability (HCC-15; first compound 0.08 µM): 0.949 | relative viability (HCC-15; first compound 0.253 µM): 1.01 | relative viability (HCC-15; first compound 0.8 µM): 0.956 | relative viability (HCC-15; first compound 2.53 µM): 1 | relative viability (HCC-15; first compound 8 µM): 0.931 | relative viability (HOP-62; first compound 0.08 µM): 1.1 | relative viability (HOP-62; first compound 0.253 µM): 1.06 | relative viability (HOP-62; first compound 0.8 µM): 1.14 | relative viability (HOP-62; first compound 2.53 µM): 0.966 | relative viability (HOP-62; first compound 8 µM): 1.09 | relative viability (NCI-H1355; first compound 0.08 µM): 0.948 | relative viability (NCI-H1355; first compound 0.253 µM): 0.892 | relative viability (NCI-H1355; first compound 0.8 µM): 0.972 | relative viability (NCI-H1355; first compound 2.53 µM): 0.927 | relative viability (NCI-H1355; first compound 8 µM): 0.958 | relative viability (NCI-H1395; first compound 0.08 µM): 0.894 | relative viability (NCI-H1395; first compound 0.253 µM): 1.02 | relative viability (NCI-H1395; first compound 0.8 µM): 0.948 | relative viability (NCI-H1395; first compound 2.53 µM): 1.03 | relative viability (NCI-H1395; first compound 8 µM): 1.13 | relative viability (NCI-H1734; first compound 0.08 µM): 0.942 | relative viability (NCI-H1734; first compound 0.253 µM): 0.819 | relative viability (NCI-H1734; first compound 0.8 µM): 0.78 | relative viability (NCI-H1734; first compound 2.53 µM): 0.476 | relative viability (NCI-H1734; first compound 8 µM): 0.748 | relative viability (NCI-H1755; first compound 0.08 µM): 0.922 | relative viability (NCI-H1755; first compound 0.253 µM): 0.886 | relative viability (NCI-H1755; first compound 0.8 µM): 0.94 | relative viability (NCI-H1755; first compound 2.53 µM): 0.888 | relative viability (NCI-H1755; first compound 8 µM): 0.878 | relative viability (NCI-H1793; first compound 0.08 µM): 0.572 | relative viability (NCI-H1793; first compound 0.253 µM): 0.721 | relative viability (NCI-H1793; first compound 0.8 µM): 0.569 | relative viability (NCI-H1793; first compound 2.53 µM): 0.46 | relative viability (NCI-H1793; first compound 8 µM): 0.658 | relative viability (NCI-H1993; first compound 0.08 µM): 0.898 | relative viability (NCI-H1993; first compound 0.253 µM): 0.782 | relative viability (NCI-H1993; first compound 0.8 µM): 0.851 | relative viability (NCI-H1993; first compound 2.53 µM): 0.786 | relative viability (NCI-H1993; first compound 8 µM): 0.88 | relative viability (NCI-H2009; first compound 0.08 µM): 1.21 | relative viability (NCI-H2009; first compound 0.253 µM): 1.2 | relative viability (NCI-H2009; first compound 0.8 µM): 1.12 | relative viability (NCI-H2009; first compound 2.53 µM): 1.13 | relative viability (NCI-H2009; first compound 8 µM): 1.04 | relative viability (NCI-H2170; first compound 0.08 µM): 1.06 | relative viability (NCI-H2170; first compound 0.253 µM): 1.01 | relative viability (NCI-H2170; first compound 0.8 µM): 0.987 | relative viability (NCI-H2170; first compound 2.53 µM): 0.591 | relative viability (NCI-H2170; first compound 8 µM): 0.986 | relative viability (NCI-H2228; first compound 0.08 µM): 0.803 | relative viability (NCI-H2228; first compound 0.253 µM): 0.919 | relative viability (NCI-H2228; first compound 0.8 µM): 0.85 | relative viability (NCI-H2228; first compound 2.53 µM): 0.839 | relative viability (NCI-H2228; first compound 8 µM): 0.863 | relative viability (NCI-H2342; first compound 0.08 µM): 1.11 | relative viability (NCI-H2342; first compound 0.253 µM): 1.13 | relative viability (NCI-H2342; first compound 0.8 µM): 1.04 | relative viability (NCI-H2342; first compound 2.53 µM): 0.923 | relative viability (NCI-H2342; first compound 8 µM): 1.17 | relative viability (NCI-H2347; first compound 0.08 µM): 0.83 | relative viability (NCI-H2347; first compound 0.253 µM): 1.21 | relative viability (NCI-H2347; first compound 2.53 µM): 0.876 | relative viability (NCI-H2347; first compound 8 µM): 0.472 | relative viability (NCI-H358; first compound 0.08 µM): 0.748 | relative viability (NCI-H358; first compound 0.253 µM): 0.623 | relative viability (NCI-H358; first compound 0.8 µM): 0.565 | relative viability (NCI-H358; first compound 2.53 µM): 0.595 | relative viability (NCI-H358; first compound 8 µM): 0.511 | relative viability (NCI-H647; first compound 0.08 µM): 1.23 | relative viability (NCI-H647; first compound 0.253 µM): 1.12 | relative viability (NCI-H647; first compound 0.8 µM): 0.998 | relative viability (NCI-H647; first compound 2.53 µM): 1.18 | relative viability (NCI-H647; first compound 8 µM): 0.97 | relative viability (NCI-H838; first compound 0.08 µM): 1.06 | relative viability (NCI-H838; first compound 0.8 µM): 0.948 | relative viability (NCI-H838; first compound 2.53 µM): 0.861 | relative viability (NCI-H838; first compound 8 µM): 0.964 | relative viability (PC-14; first compound 0.08 µM): 0.949 | relative viability (PC-14; first compound 0.253 µM): 0.911 | relative viability (PC-14; first compound 0.8 µM): 0.956 | relative viability (PC-14; first compound 2.53 µM): 0.74 | relative viability (PC-14; first compound 8 µM): 0.891 | relative viability (SK-MES-1; first compound 0.08 µM): 1.06 | relative viability (SK-MES-1; first compound 0.253 µM): 0.773 | relative viability (SK-MES-1; first compound 0.8 µM): 0.978 | relative viability (SK-MES-1; first compound 8 µM): 0.925 | relative viability (UMC-11; first compound 0.08 µM): 0.99 | relative viability (UMC-11; first compound 0.253 µM): 1.04 | relative viability (UMC-11; first compound 0.8 µM): 0.978 | relative viability (UMC-11; first compound 2.53 µM): 0.681 | relative viability (UMC-11; first compound 8 µM): 0.69
